Experimental data: patent US6960614B2, “Oxygenated esters of 4-lodo phenylamino benzhydroxamic acids” (Warner-Lambert Company, priority 2000, dated 2005)

System: MEK
Assay: Cellular Assay for Measuring MEK Inhibition (inhibition of ERK phosphorylation in C26 cells, Western blot)
Type: cell-based, murine
Details: for IC50: inhibition of ERK phosphorylation in murine colon 26 (C26) carcinoma cells, determined graphically from dose response curve
Method in brief: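 Read-out is phospho-ERK1/2 by Western blot, normalized against total ERK1/2 after stripping and re-probing. Murine C26 colon carcinoma cells in exponential growth were exposed to a range of compound concentrations at 37° C before lysis.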

[1] = ERK phosphorylation in C26 cells

| IC50 | SMILES | % Inhibition @ 1 μM [1] | also measured |
| --- | --- | --- | --- |
| 53 nM | O=C(NOCC(O)COc1ccccc1)c1ccc(F)c(F)c1Nc1ccc(I)cc1Cl (stereo not drawn) [Example 183] |  |  |
| 180 nM | CC(C)(O)CONC(=O)c1cc(Cl)c(F)c(F)c1Nc1ccc(I)cc1Cl [Example 175, 5-Chloro-2-(2-chloro-4-iodo-phenylamino)-3,4-difluoro-N-(2-hydroxy-2-methyl-propoxy)-benzamide] |  |  |
| 100 nM | Cc1cc(I)ccc1Nc1c(C(=O)NOCC(C)(C)CO)cc(Cl)c(F)c1F [Example 201, 5-Chloro-3,4-difluoro-N-(3-hydroxy-2,2-dimethyl-propoxy)-2-(4-iodo-2-methyl-phenylamino)-benzamide] |  |  |
| 100 nM | Cc1cc(I)ccc1Nc1c(C(=O)NOCC(C)(C)O)ccc(F)c1F [Example 174, 3,4-Difluoro-N-(2-hydroxy-2-methyl-propoxy)-2-(4-iodo-2-methyl-phenylamino)-benzamide] |  |  |
| 9 nM | CC(CO)ONC(=O)c1ccc(F)c(F)c1Nc1ccc(I)cc1F (stereo not drawn) [Example 128, 3,4-Difluoro-2-(2-fluoro-4-iodo-phenylamino)-N-(2-hydroxy-1-methyl-ethoxy)-benzamide] |  |  |

The remaining lines, values behind:

| SMILES | IC50 | % Inhibition @ 1 μM [1] | also measured |
| --- | --- | --- | --- |
| CC(CO)ONC(=O)c1ccc(F)c(F)c1Nc1ccc(I)cc1Cl (stereo not drawn) [Example 120, 2-(2-Chloro-4-iodo-phenylamino)-3,4-difluoro-N-(2-hydroxy-1-methyl-ethoxy)-benzamide] | 14 nM |  |  |
| Cc1cc(I)ccc1Nc1c(C(=O)NOCC(O)CO)cc(F)c(F)c1F (stereo not drawn) [Example 90, N-(2,3-Dihydroxy-propoxy)-3,4,5-trifluoro-2-(4-iodo-2-methyl-phenylamino)-benzamide] | 40 nM |  |  |
| O=C(NOCCC(O)CO)c1cc(F)c(F)c(F)c1Nc1ccc(I)cc1Cl (stereo not drawn) [Example 93, 2-(2-Chloro-4-iodo-phenylamino)-N-(3,4-dihydroxy-butoxy)-3,4,5-trifluoro-benzamide] |  | 79.1% | % Inhibition @ 0.1 μM [1]: 4% |
| CC(CO)ONC(=O)c1cc(F)c(F)c(F)c1Nc1ccc(I)cc1Cl (stereo not drawn) [Example 121, 2-(2-Chloro-4-iodo-phenylamino)-3,4,5-trifluoro-N-(2-hydroxy-1-methyl-ethoxy)-benzamide] |  | 85.5% | % Inhibition @ 0.1 μM [1]: 46.9% |
| O=C(NOCCCO)c1ccc(F)c(F)c1Nc1ccc(I)cc1F [Example 32, 3,4-Difluoro-2-(2-fluoro-4-iodo-phenylamino)-N-(3-hydroxy-propoxy)-benzamide] | 4.4 nM |  |  |
| O=C(NOCC(O)COc1ccccc1)c1cc(Cl)c(F)c(F)c1Nc1ccc(F)cc1F (stereo not drawn) [Example 194, 5-Chloro-2-(2,4-difluoro-phenylamino)-3,4-difluoro-N-(2-hydroxy-3-phenoxy-propoxy)-benzamide] |  | 0% | % Inhibition @ 0.1 μM [1]: 0% |
| O=C(NOCCNc1ccccc1)c1ccc(F)c(F)c1Nc1ccc(I)cc1Cl [Example 77, 2-(2-Chloro-4-iodo-phenylamino)-3,4-difluoro-N-(2-phenylamino-ethoxy)-benzamide] | 240 nM |  |  |
| CC(O)CONC(=O)c1cc(Cl)c(F)c(F)c1Nc1ccc(I)cc1F (stereo not drawn) [Example 165, 5-Chloro-3,4-difluoro-2-(2-fluoro-4-iodo-phenylamino)-N-(2-hydroxy-propoxy)-benzamide] | 4 nM |  |  |
| CC(C)(O)CONC(=O)c1cc(Cl)c(F)c(F)c1Nc1ccc(I)cc1F [Example 179, 5-Chloro-3,4-difluoro-2-(2-fluoro-4-iodo-phenylamino)-N-(2-hydroxy-2-methyl-propoxy)-benzamide] |  | 99.3% | % Inhibition @ 0.1 μM [1]: 90.4% |
| Cc1cc(I)ccc1Nc1c(C(=O)NOCCNc2ccccc2)ccc(F)c1F [Example 234, 3,4-Difluoro-2-(4-iodo-2-methyl-phenylamino)-N-(2-phenylamino-ethoxy)-benzamide] | 54 nM |  |  |
| O=C(NOCC1CC1CO)c1ccc(F)c(F)c1Nc1ccc(F)cc1F (stereo not drawn) [Example 215, 2-(2,4-Difluoro-phenylamino)-3,4-difluoro-N-(2-hydroxymethyl-cyclopropylmethoxy)-benzamide] |  | 11.7% | % Inhibition @ 10 μM (10 μM, ERK phosphorylation in C26 cells): 84.8% |
